In US20040047829A1, “Fluids for sanitizing the teats of dairy animals” (priority 2002, published 2004) one finds stability of solutions data, which are given here for one substance.

The nature of the data set: Stability of ADBAC solutions. Type of data set: physicochemical. An excerpt:
The principal antibacterial ingredient in these formulations is alkyl dimethyl benzyl ammonium chloride (ADBAC). ADBAC is effective in killing the bacteria associated with mastitis in milking animals, and is not an oxidant. It also has a slight detergent action and so assists in cleaning dirt off of the animal's teats. […] It is inexpensive and is obtained commercially in a convenient dry form under the trade name TIMSEN. In TIMSEN, urea is used as a carrier and a buffer in a weight ratio of about three parts urea to two parts ADBAC by weight. Urea will be in the sanitizing fluid when TIMSEN is used as the stock source for ADBAC, however, it will be understood that urea is not an active ingredient in these formulations.

With “alkyl dimethyl benzyl ammonium chloride [ADBAC]”, the stability of solutions entry is given as “stable for over a year”.
